Values after ≈ are worked out from the molar mass of the structure shown. A value given as a limit tells only on which side of the number the result lay.

In general, MIC refers to the lowest concentration found to suppress growth. Broadly, the IC50 is the concentration that inhibits the measured activity by half. One may read the Ki as the equilibrium dissociation constant of an inhibitor or competing ligand from its target.

Assay [1] relates to Escherichia coli. Briefly: Antibacterial activity against Escherichia coli MTCC 443 assessed as bacterial growth inhibition. Type of assay: functional.
Assay [2] concerns Staphylococcus aureus. Briefly: Antibacterial activity against Staphylococcus aureus MTCC 096 assessed as bacterial growth inhibition. Type of assay: functional.
A further assay has as its system Aspergillus niger. As to the kind of experiment: Antifungal activity against Aspergillus niger MTCC 343 assessed as fungal growth inhibition. Type of assay: functional.
For the next assay, the system named is MCF7. Briefly: Antiproliferative activity against human MCF7 cells assessed as cell growth inhibition measured after 5 days by Coulter counter method. Type of assay: functional, cell-based. As to conditions: MCF7, 120 h.
Assay [3] is filed under the species Rattus norvegicus. As to the kind of experiment: Selectivity index, ratio of Ki for A2AAR in rat striata to Ki for A1AR in rat whole brain.
Assay [4] is filed under the species Rattus norvegicus. As to the kind of experiment: Selectivity index, ratio of Ki for A2AAR in rat striatal membrane to Ki for A1AR in rat whole brain membrane. The class given is cell membranes.
Assay [5] concerns Mycobacterium tuberculosis. As to the kind of experiment: Antibacterial activity against Mycobacterium tuberculosis H37Rv assessed as bacterial growth inhibition. The class given is functional.
The test system of a further assay is A-431. As to the kind of experiment: Antiproliferative activity against human A-431 cells assessed as cell growth inhibition incubated for 48 hrs by methylene blue staining based colorimetric assay. The class given is functional. The note with it: A-431, 48 h.
Assay [6] has as its system Staphylococcus aureus. As to the kind of experiment: Antibacterial activity against Staphylococcus aureus ATCC 29213 assessed as bacterial growth inhibition by CLSI based protocol. Type of assay: functional, organism-based.
The subject of assay [7] is Staphylococcus aureus. As to the kind of experiment: Antibacterial activity against methicillin-resistant Staphylococcus aureus ATCC 33591 assessed as bacterial growth inhibition by CLSI based protocol. Type of assay: functional, organism-based.
Assay [8] addresses T1, Peroxisome proliferator-activated receptor gamma (Homo sapiens, UniProt P37231).
T1 sequence (P37231 whole entry): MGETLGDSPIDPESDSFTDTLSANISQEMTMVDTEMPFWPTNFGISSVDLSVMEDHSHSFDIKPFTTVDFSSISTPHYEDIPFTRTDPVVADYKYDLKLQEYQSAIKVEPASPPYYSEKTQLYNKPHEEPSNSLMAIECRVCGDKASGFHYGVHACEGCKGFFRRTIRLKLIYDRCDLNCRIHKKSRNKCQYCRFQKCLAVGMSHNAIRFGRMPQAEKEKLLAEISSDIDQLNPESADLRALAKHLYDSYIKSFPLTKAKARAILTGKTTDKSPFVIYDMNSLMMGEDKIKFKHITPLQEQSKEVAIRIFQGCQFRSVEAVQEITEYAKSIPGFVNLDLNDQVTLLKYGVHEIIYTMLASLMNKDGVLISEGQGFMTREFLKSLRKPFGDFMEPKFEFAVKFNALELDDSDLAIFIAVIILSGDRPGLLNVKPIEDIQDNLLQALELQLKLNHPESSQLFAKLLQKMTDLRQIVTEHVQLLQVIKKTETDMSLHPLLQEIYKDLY
Briefly: Displacement of isotopically-labeled PPAR-gamma (unknown origin) assessed as inhibition constant by competitive inhibition assay.

For assay [9], the system named is Escherichia coli. As to the kind of experiment: Antibacterial activity against multidrug resistant Escherichia coli MDREC-KG1 clinical isolate assessed as bacterial growth inhibition. The class given is functional.
The test system of assay [10] is Escherichia coli. Briefly: Antibacterial activity against multidrug resistant Escherichia coli MDREC-KG4 clinical isolate assessed as bacterial growth inhibition. Type of assay: functional.
The test system of assay [11] is Escherichia coli. Briefly: Antibacterial activity against multidrug resistant Escherichia coli MDREC-EM7 mutant assessed as bacterial growth inhibition. Type of assay: functional.
Assay [12] has as its system Escherichia coli. As to the kind of experiment: Antibacterial activity against multidrug resistant Escherichia coli MDREC-EM5 mutant assessed as bacterial growth inhibition. Type of assay: functional.
A further assay concerns KB. Briefly: Cytotoxicity aginst human KB cells assessed as cell growth inhibition. The class given is functional, cell-based. As to conditions: Homo sapiens, KB; read-out: IC50.
Assay [13] concerns the target T2, Amine oxidase [flavin-containing] A (Bos taurus, UniProt P21398).
T2 sequence (P21398 whole entry): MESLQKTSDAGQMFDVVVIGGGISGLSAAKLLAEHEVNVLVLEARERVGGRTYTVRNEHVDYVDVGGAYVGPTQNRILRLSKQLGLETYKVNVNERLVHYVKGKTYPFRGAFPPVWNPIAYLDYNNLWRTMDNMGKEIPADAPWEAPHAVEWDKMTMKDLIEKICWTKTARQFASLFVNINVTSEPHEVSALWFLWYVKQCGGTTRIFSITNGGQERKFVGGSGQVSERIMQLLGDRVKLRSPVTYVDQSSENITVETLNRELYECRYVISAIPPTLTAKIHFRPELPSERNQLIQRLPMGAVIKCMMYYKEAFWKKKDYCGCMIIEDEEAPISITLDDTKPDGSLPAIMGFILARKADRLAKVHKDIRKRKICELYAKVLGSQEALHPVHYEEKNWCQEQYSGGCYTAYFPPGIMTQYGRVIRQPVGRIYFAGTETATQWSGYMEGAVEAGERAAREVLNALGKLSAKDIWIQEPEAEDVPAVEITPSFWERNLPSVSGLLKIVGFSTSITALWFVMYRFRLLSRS
Description: Inhibition of recombinant bovine mitochondrial MAO-A using benzylamine or serotonin as substrate incubated for 60 mins by fluorimetry assay

The next assay has as its target Acetylcholinesterase (Homo sapiens, UniProt P22303). Briefly: Inhibition of AChE (unknown origin) using […] preincubated for 15 mins by Ellman's method. (Ellman's reagent forms a yellow product with free thiols.)

Sequence of Acetylcholinesterase (P22303 whole entry): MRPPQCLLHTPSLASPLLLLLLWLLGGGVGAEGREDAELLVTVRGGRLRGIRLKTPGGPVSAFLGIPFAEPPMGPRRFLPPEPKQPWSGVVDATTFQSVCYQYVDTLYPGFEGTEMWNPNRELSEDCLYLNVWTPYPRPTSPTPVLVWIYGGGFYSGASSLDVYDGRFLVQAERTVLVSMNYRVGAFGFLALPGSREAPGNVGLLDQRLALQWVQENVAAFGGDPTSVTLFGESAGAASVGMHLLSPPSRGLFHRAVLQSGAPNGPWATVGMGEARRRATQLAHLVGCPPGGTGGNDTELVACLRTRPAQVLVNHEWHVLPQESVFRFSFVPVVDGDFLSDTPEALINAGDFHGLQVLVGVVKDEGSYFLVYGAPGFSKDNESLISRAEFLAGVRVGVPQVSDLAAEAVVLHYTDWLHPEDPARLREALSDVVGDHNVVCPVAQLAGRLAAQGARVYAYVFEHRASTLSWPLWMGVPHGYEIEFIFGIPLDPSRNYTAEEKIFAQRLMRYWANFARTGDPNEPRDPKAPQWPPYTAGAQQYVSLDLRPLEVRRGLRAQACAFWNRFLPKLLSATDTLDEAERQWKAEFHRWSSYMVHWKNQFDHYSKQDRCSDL

With `COc1ccc2c(c1)CC[C@@H]1C2=NN(C2=NC(=O)C(C)S2)[C@@H]1c1ccc(Cl)cc1` (some centres undefined), the MIC with Escherichia coli [1], in the assay with Staphylococcus aureus [2] and in the assay on Aspergillus niger was 12.5 µg/mL (≈ 29.3 µM) throughout.
Regarding `COc1ccc2c(c1)CCc1c(-c3ccc(F)cc3)n[nH]c1-2`, the IC50 with MCF7 was 1.5 µM.
With `O=C1/C(=C/c2cccc(O)c2)CCc2c(O)cccc21`, in the assay filed under Rattus norvegicus [3], the Ratio Ki was 3.4.
As for `COc1ccc(/C=C2\CCc3c(O)cccc3C2=O)cc1OC`, the Ratio Ki in the assay listed under Rattus norvegicus [4] turned out to be 1.03.
On to `CO[C@H]1CCC(=O)c2cccc(O)c21`, for which the MIC in assay [5] was found to be 6.25 µg/mL (≈ 32.5 µM).
As to `CC1SC(N2N=C3c4ccccc4CC[C@H]3[C@H]2c2ccccc2)=NC1=O` (some centres undefined), the MIC in the assay on Escherichia coli [1] and in the assay with Staphylococcus aureus [2] was 6.25 µg/mL (≈ 17.3 µM) throughout.
Take `COc1ccc(/C=C2\CCc3ccccc3C2=O)cc1`: the IC50 in the assay with A-431 was over 20 µM.
In the case of `O=C1CC[C@H](O)c2c(O)ccc(O)c21`, the figures for the IC50 in the assay on Staphylococcus aureus [6] and in the assay on Staphylococcus aureus [7] were 4960 µg/mL (≈ 25500 µM) and 3460 µg/mL (≈ 17800 µM), respectively. The MIC with Staphylococcus aureus [6] amounted to 10000 µg/mL (≈ 51500 µM); with Staphylococcus aureus [7], 5000 µg/mL (≈ 25700 µM).
With `COc1ccc([C@@H]2CC(=O)c3cc4c(cc3C2)OC(C)(C)C=C4)cc1O`, in assay [8], the Ki was found to be 17.9 µM.
On to `COc1cc(C(=O)O[C@H]2CCC(=O)c3ccccc32)cc(OC)c1OC` [4-O-(3,4,5-TRIMETHOXYBENZOYL)-ALPHA-TETRALONE], for which the MIC in the assay on Escherichia coli [9], in the assay on Escherichia coli [10], in the assay with Escherichia coli [11] and in the assay with Escherichia coli [12] was 250 µg/mL (≈ 702 µM) in each case.
As to `CC1(C)C=Cc2cc3c(cc2O1)C[C@H](c1ccc(O)cc1)CC3=O`, the Ki in assay [8] stood at 4.9 µM.
Take `CC1(C)C=Cc2cc3c(cc2O1)C[C@H](c1ccc(O)c(O)c1)CC3=O`: the Ki in assay [8] came to 5.8 µM. The IC50 with KB came out at 1.4 µM.
Take `O=C1/C(=C/c2ccncc2)CCc2ccccc21`: the IC50 in the assay with A-431 is under 10 µM.
On to `C=C(C)C1Cc2cc3c(cc2C1)C(=O)C[C@@H](c1ccc(O)c(O)c1)C3` (some centres undefined), for which, in assay [8], the Ki amounted to 4.7 µM.
With `Cc1cc(O)c2c(c1)C(O)CCC2=O` (centres undefined), the MIC in assay [5] was determined as 100 µg/mL (≈ 520 µM).
On to `Nc1ncc(/C=C2\CCc3c(O)cccc3C2=O)cn1`, for which the Ratio Ki in the assay filed under Rattus norvegicus [3] turned out to be 0.14.
For the compound `O=C1/C(=C/c2ccccc2)CCc2ccccc21`, the IC50 with A-431 was under 10 µM.
Regarding `COc1cc2c(cc1OC)C(=O)C(CC1CCN(Cc3ccccc3)CC1)C2` (centres undefined) [DONEPEZIL], the IC50 in assay [13] was determined as 828 µM.
Compound `O=C1CC(O)C(O)c2c(O)cccc21` (centres undefined) showed an IC50 against Acetylcholinesterase of 1410 µM.
